# Results published in PubChem BioAssay (NCI).
#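 Grown in 96-well plates, cells were treated for 48 hours with each compound at five concentrations. Insufficient inhibition: endpoint recorded as highest concentration tested. The concentration for full growth arrest is given as TGI.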
# Legend:
# Assay in all cases: NCI anticancer screen, dose series, 48 h
# [1] = test system: 786-0 renal
# [2] = test system: A498 renal
# [3] = test system: A549 NSCLC
# [4] = test system: ACHN renal
# [5] = test system: BT-549 breast
# [6] = test system: CAKI-1 renal
# [7] = test system: CCRF-CEM leukemia
# [8] = test system: COLO 205 colon
# [9] = test system: EKVX NSCLC
# [10] = test system: HCC-2998 colon
# [11] = test system: HCT-116 colon
# [12] = test system: HCT-15 colon
# [13] = test system: HOP-62 NSCLC
# [14] = test system: IGROV1 ovarian
# [15] = test system: KM12 colon
# [16] = test system: LOX IMVI melanoma
# [17] = test system: M14 melanoma
# [18] = test system: MALME-3M melanoma
# [19] = test system: MCF7 breast
# [20] = test system: MDA-MB-231 breast
# [21] = test system: MDA-MB-435
# [22] = test system: MDA-N
# [23] = test system: NCI-H226 lung
# [24] = test system: NCI-H23 lung
# [25] = test system: NCI-H460 lung
# [26] = test system: NCI-H522 lung
# [27] = test system: NCI/ADR-RES ovarian
# [28] = test system: OVCAR-3 ovarian
# [29] = test system: OVCAR-4 ovarian
# [30] = test system: OVCAR-5 ovarian
# [31] = test system: OVCAR-8 ovarian
# [32] = test system: PC-3 prostate
# [33] = test system: RPMI-8226 leukemia
# [34] = test system: RXF 393 renal
# [35] = test system: SF-268 CNS
# [36] = test system: SF-295 CNS
# [37] = test system: SF-539 CNS
# [38] = test system: SK-MEL-2 melanoma
# [39] = test system: SK-MEL-28 melanoma
# [40] = test system: SK-MEL-5 melanoma
# [41] = test system: SK-OV-3 ovarian
# [42] = test system: SN12C renal
# [43] = test system: SNB-19 CNS
# [44] = test system: SNB-75 CNS
# [45] = test system: SW-620 colon
# [46] = test system: T-47D breast
# [47] = test system: TK-10 renal
# [48] = test system: U251 CNS
# [49] = test system: UACC-257 melanoma
# [50] = test system: UO-31 renal
# [51] = test system: DU-145 prostate
# [52] = test system: HL-60(TB) leukemia
# [53] = test system: HOP-92 NSCLC
# [54] = test system: HS 578T breast
# [55] = test system: HT29 colon
# [56] = test system: K-562 leukemia
# [57] = test system: MOLT-4 leukemia
# [58] = test system: SR leukemia
# [59] = test system: UACC-62 melanoma
smiles,measurement,setting,value
N#Cc1c(-c2ccccc2)/c(=C\Nc2ccc(F)cc2)c(=O)n2c1nc1ccccc12,TGI,[1],68.3 µM
same,TGI,[2],> 100 µM
same,TGI,[3],> 100 µM
same,TGI,[4],> 100 µM
same,TGI,[5],> 100 µM
same,TGI,[6],39.9 µM
same,TGI,[7],> 100 µM
same,TGI,[8],> 100 µM
same,TGI,[9],> 100 µM
same,TGI,[10],> 100 µM
same,TGI,[11],> 100 µM
same,TGI,[12],> 100 µM
same,TGI,[13],10.8 µM
same,TGI,[14],87.3 µM
same,TGI,[15],> 100 µM
same,TGI,[16],> 100 µM
same,TGI,[17],40.4 µM
same,TGI,[18],52.7 µM
same,TGI,[19],> 100 µM
same,TGI,[20],> 100 µM
same,TGI,[21],> 100 µM
same,TGI,[22],57.9 µM
same,TGI,[23],64.1 µM
same,TGI,[24],> 100 µM
same,TGI,[25],> 100 µM
same,TGI,[26],34.3 µM
same,TGI,[27],64.9 µM
same,TGI,[28],48.2 µM
same,TGI,[29],> 100 µM
same,TGI,[30],> 100 µM
same,TGI,[31],> 100 µM
same,TGI,[32],> 100 µM
same,TGI,[33],38.5 µM
same,TGI,[34],52.3 µM
same,TGI,[35],> 100 µM
same,TGI,[36],> 100 µM
same,TGI,[37],68.4 µM
same,TGI,[38],> 100 µM
same,TGI,[39],> 100 µM
same,TGI,[40],> 100 µM
same,TGI,[41],> 100 µM
same,TGI,[42],82.9 µM
same,TGI,[43],> 100 µM
same,TGI,[44],> 100 µM
same,TGI,[45],> 100 µM
same,TGI,[46],> 100 µM
same,TGI,[47],> 100 µM
same,TGI,[48],> 100 µM
same,TGI,[49],> 100 µM
same,TGI,[50],45.6 µM
COc1cccc(CCCNC(=O)Cc2cc(OC)c(OC)cc2CO)c1,TGI,[1],> 100 µM
same,TGI,[2],> 100 µM
same,TGI,[3],> 100 µM
same,TGI,[4],> 100 µM
same,TGI,[5],> 100 µM
same,TGI,[6],> 100 µM
same,TGI,[7],> 100 µM
same,TGI,[8],> 100 µM
same,TGI,[51],> 100 µM
same,TGI,[9],> 100 µM
same,TGI,[10],> 100 µM
same,TGI,[11],> 100 µM
same,TGI,[12],> 100 µM
same,TGI,[52],> 100 µM
same,TGI,[13],> 100 µM
same,TGI,[53],> 100 µM
same,TGI,[54],> 100 µM
same,TGI,[55],> 100 µM
same,TGI,[14],> 100 µM
same,TGI,[56],> 100 µM
same,TGI,[15],> 100 µM
same,TGI,[16],> 100 µM
same,TGI,[17],> 100 µM
same,TGI,[18],> 100 µM
same,TGI,[20],> 100 µM
same,TGI,[21],> 100 µM
same,TGI,[22],> 100 µM
same,TGI,[57],> 100 µM
same,TGI,[23],> 100 µM
same,TGI,[24],> 100 µM
same,TGI,[25],> 100 µM
same,TGI,[27],> 100 µM
same,TGI,[28],> 100 µM
same,TGI,[29],> 100 µM
same,TGI,[30],> 100 µM
same,TGI,[31],> 100 µM
same,TGI,[32],> 100 µM
same,TGI,[38],> 100 µM
same,TGI,[39],> 100 µM
same,TGI,[40],> 100 µM
same,TGI,[42],> 100 µM
same,TGI,[43],> 100 µM
same,TGI,[44],> 100 µM
same,TGI,[58],> 100 µM
same,TGI,[45],> 100 µM
same,TGI,[46],> 100 µM
same,TGI,[47],> 100 µM
same,TGI,[48],> 100 µM
same,TGI,[49],> 100 µM
same,TGI,[59],> 100 µM
same,TGI,[50],> 100 µM
